Experimental data: patent publication US20080008991A1, “SYSTEM AND METHOD FOR OPTIMIZING DRUG THERAPY FOR THE TREATMENT OF DISEASES” (priority 2000, published 2008)
Read-outs that look alike come from different tables or passages of the source.

Legend:
[1] = Amprenavir plasma trough concentration by LC-MS/MS in treatment-experienced patients; conditions: human, in vivo; median; 12 hours after dosing; amprenavir 1200 mg bid with ritonavir or nelfinavir; 17 patients; read-out: Cmin
Method: Patients were enrolled into three parallel treatment groups that included abacavir 300 mg bid, amprenavir 1200 mg bid, and efavirenz 600 mg daily with either low dose ritonavir at 200 mg BID, high dose ritonavir at 500 mg bid, or nelfinavir 1250 mg bid.
Genotyping (VircoGEN II™, VIRCO) and VIRTUAL PHENOTYPE™ were performed on baseline samples. Viral load data were collected at baseline (mean of two pre-therapy samples) and at week 24. Serial pharmacokinetic samples were collected over 12 hours after week 3 for ritonavir-boosted regimens and after week 2 for nelfinavir-boosted regimens.
Amprenavir concentrations in plasma were determined by a validated LC-MS/MS method.
For amprenavir, nelfinavir, and ritonavir, the concentration 12 hours after dosing was used as the Cmin. For each drug, relationships between viral load change at week 24 and the Cmin, fold-change in resistance, and NIQ were fit to a sigmoidal maximum effect model.

HIV-1 = assay: NIQ as predictor of virologic outcome at week 24; type: in vivo, human (patients)
Method: The normalized inhibitory quotient (NIQ) was determined as: [formula]
Where the IQ in an individual patient (IQpatient) was calculated as ratio of the patient's trough concentration (Cmin) to the susceptibility of the patient's virus to the drug, expressed as fold change compared to wild type virus (Virtual Phenotype). The IQpt was then related to the reference inhibitory quotient (IQref), in which the mean population trough concentration of the drug from the product label was divided by the cut-off value of the fold change for susceptible viruses.
For amprenavir, nelfinavir, and ritonavir, the concentration 12 hours after dosing was used as the Cmin. […]

HIV = conditions: lopinavir plus efavirenz and 2 NRTIs, cited from earlier work

SMILES	concentration at 12 h [1] [ng/mL]	patients with decrease in viral load to <400 copies/ml at week 24 (HIV-1; patients achieving NIQ>3.0)	patients with decrease in viral load to <400 copies/ml at week 24 (HIV-1; patients with NIQ<3.0)	% of patients with viral load below 400 copies/mL at week 24 (HIV; lopinavir IQ 4-15) [%]	% of patients with viral load below 400 copies/mL at week 24 (HIV; lopinavir IQ <4) [%]	% of patients with viral load below 400 copies/mL at week 24 (HIV; lopinavir IQ >15) [%]
CC(C)CN(C[C@@H](O)[C@H](Cc1ccccc1)NC(=O)O[C@H]1CCOC1)S(=O)(=O)c1ccc(N)cc1 [Amprenavir, amprenavir]	1270	7/8	1/9			
Cc1cccc(C)c1OCC(=O)N[C@@H](Cc1ccccc1)[C@@H](O)C[C@H](Cc1ccccc1)NC(=O)[C@H](C(C)C)N1CCCNC1=O [lopinavir]				80	70	100
